Source: ChEMBL document CHEMBL5543156, “Selective Elimination of Senescent Cancer Cells by Galacto-Modified PROTACs” (J Med Chem, 2024)
Calls of active or inactive are those of the source. The calls are words filed in the database; no cut-off is given here.

Assays:
[1] = molecular target: T1, NPM/ALK (Nucleophosmin/ALK tyrosine kinase receptor) (Homo sapiens) (UniProt Q9UM73+P06748); test: Induction of NPM-ALK degradation in human normal (non-senescent) KARPAS-299 cells at 1 uM incubated for 16 hrs by Western blot analysis; assay type: cell-based
[2] = molecular target: T1, NPM/ALK (Nucleophosmin/ALK tyrosine kinase receptor) (Homo sapiens); test: Induction of NPM-ALK degradation in human senescent KARPAS-299 cells at 1 uM incubated for 16 hrs by Western blot analysis; assay type: cell-based
[3] = tested on: KARPAS-299; test: Antiproliferative activity against human normal (non-senescent) KARPAS-299 cells assessed as reduction in cell viability incubated for 72 hrs by CCK-8 assay; assay type: functional, cell-based; conditions: KARPAS-299, 72 h
[4] = tested on: KARPAS-299; test: Antiproliferative activity against human senescent KARPAS-299 cells assessed as reduction in cell viability incubated for 72 hrs by CCK-8 assay; assay type: functional, cell-based; conditions: KARPAS-299, 72 h
[5] = tested on: KARPAS-299; test: Senolytic index, ratio of IC50 for antiproliferative activity against human normal (non-senescent) KARPAS-299 cells assessed as reduction in cell viability to IC50 for antiproliferative activity against human senescent KARPAS-299 cells assessed as reduction in cell viability; assay type: functional
[6] = molecular target: T2, Bromodomain-containing protein 4 (Homo sapiens, UniProt O60885); test: Induction of BRD4 degradation in etoposide-induced human senescent A549 cells pretreated with etoposide for 3 days followed by compound administration and measured after 15 mins by SA-beta-Gal staining assay; assay type: cell-based
[7] = molecular target: T2, Bromodomain-containing protein 4; test: Induction of BRD4 degradation in human normal (non-senescent) A549 cells at 50 to 100 nM by SA-beta-Gal staining assay; assay type: cell-based; conditions: dose 50-100 nM
[8] = molecular target: T2, Bromodomain-containing protein 4; test: Induction of BRD4 degradation in human A549 cells at 50 nM incubated for 16 hrs in presence of MG-132 by Western blot analysis; assay type: cell-based
[9] = tested on: A549; test: Antiproliferative activity against human normal (non-senescent) A549 cells assessed as reduction in cell viability incubated for 72 hrs by CCK-8 assay; assay type: functional, cell-based; conditions: A549, 72 h
[10] = tested on: A549; test: Antiproliferative activity against human senescent A549 cells assessed as reduction in cell viability incubated for 72 hrs by CCK-8 assay; assay type: functional, cell-based; conditions: A549, 72 h
[11] = tested on: A549; test: Senolytic index, ratio of IC50 for antiproliferative activity against human normal (non-senescent) A549 cells assessed as reduction in cell viability to IC50 for antiproliferative activity against human senescent A549 cells assessed as reduction in cell viability; assay type: functional
[12] = tested on: A549; test: Induction of apoptosis in human normal (non-senescent) A549 cells assessed as viable cells at 1 uM incubated for 24 hrs by FITC/PI staining based flow cytometry analysis (reference value: 94.6%); assay type: functional; conditions: read-out: Activity
[13] = tested on: A549; test: Induction of apoptosis in human normal (non-senescent) A549 cells assessed as early apoptotic cells at 1 uM incubated for 24 hrs by FITC/PI staining based flow cytometry analysis (reference value: 3.14%); assay type: functional
[14] = tested on: A549; test: Induction of apoptosis in human normal (non-senescent) A549 cells assessed as late apoptotic cells at 1 uM incubated for 24 hrs by FITC/PI staining based flow cytometry analysis (reference value: 1.97%); assay type: functional
[15] = tested on: A549; test: Induction of apoptosis in human normal (non-senescent) A549 cells assessed as necrotic cells at 1 uM incubated for 24 hrs by FITC/PI staining based flow cytometry analysis (reference value: 0.29%); assay type: functional
[16] = tested on: A549; test: Induction of apoptosis in human senescent A549 cells assessed as viable cells at 1 uM incubated for 24 hrs by FITC/PI staining based flow cytometry analysis (reference value: 86.9%); assay type: functional; conditions: read-out: Activity
[17] = tested on: A549; test: Induction of apoptosis in human senescent A549 cells assessed as early apoptotic cells at 1 uM incubated for 24 hrs by FITC/PI staining based flow cytometry analysis (reference value: 0.68%); assay type: functional
[18] = tested on: A549; test: Induction of apoptosis in human senescent A549 cells assessed as late apoptotic cells at 1 uM incubated for 24 hrs by FITC/PI staining based flow cytometry analysis (reference value: 12.2%); assay type: functional
[19] = tested on: A549; test: Induction of apoptosis in human senescent A549 cells assessed as necrotic cells at 1 uM incubated for 24 hrs by FITC/PI staining based flow cytometry analysis (reference value: 0.15%); assay type: functional
[20] = tested on: A549; test: Antitumor activity against human A549 cells xenografted in SCID mouse assessed as tumor growth inhibition at 20 mg/kg, sc administered daily for 19 days; assay type: functional; conditions: A549, 456 h, time 19 day, read-out: TGI
[21] = Toxicity in SCID mouse xenografted with human A549 cells change in body weight at 20 mg/kg, sc administered daily for 19 days; assay type: organism-based; conditions: in vivo, 456 h, time 19 day
[22] = Stability of the compound in fetal bovine serum incubated for 24 hrs by Real-tie ultrafast liquid chromatography analysis; assay type: ADME, cell-free, Bos taurus; conditions: cattle
[23] = Stability of the compound assessed as porcine liver esterase-mediated hydrolysis measured at 16 hrs by Real-time ultrafast liquid chromatography analysis; assay type: ADME, Sus scrofa; conditions: pig, isolated protein
[24] = molecular target: T2, Bromodomain-containing protein 4; test: Induction of BRD4 degradation in etoposide-induced human senescent A549 cells at 100 nM pretreated with etoposide for 3 days followed by compound administration and measured after 15 mins by SA-beta-Gal staining assay; assay type: cell-based
[25] = molecular target: T2, Bromodomain-containing protein 4; test: Induction of BRD4 degradation in etoposide-induced human senescent A549 cells incubated for 16 hrs by Western blot analysis; assay type: cell-based
[26] = molecular target: T2, Bromodomain-containing protein 4; test: Induction of BRD4 degradation in human HeLa cells by SA-beta-Gal staining assay; assay type: cell-based
[27] = molecular target: T2, Bromodomain-containing protein 4; test: Induction of BRD4 degradation in human U87 cells by SA-beta-Gal staining assay; assay type: cell-based
[28] = molecular target: T2, Bromodomain-containing protein 4; test: Induction of BRD4 degradation in etoposide-induced human senescent HeLa cells by SA-beta-Gal staining assay; assay type: cell-based
[29] = molecular target: T2, Bromodomain-containing protein 4; test: Induction of BRD4 degradation in etoposide-induced human senescent U87 cells by SA-beta-Gal staining assay; assay type: cell-based
[30] = tested on: A549; test: Antitumor activity against etoposide-induced human A549 cells xenografted in SCID mouse assessed as tumor growth inhibition at 20 mg/kg, sc administered daily for 19 days; assay type: functional, organism-based; conditions: time 19.0 day
[31] = tested on: A549; test: Antitumor activity against human A549 cells xenografted in SCID mouse assessed as reduction in BRD4 level in tumor at 20 mg/kg, sc administered daily for 19 days by IHC analysis; assay type: functional, organism-based; conditions: time 19.0 day
[32] = tested on: A549; test: Antitumor activity against human A549 cells xenografted in SCID mouse assessed as reduction in ki67 level in tumor at 20 mg/kg, sc administered daily for 19 days in presence of etoposide by IHC analysis; assay type: functional, organism-based; conditions: time 19.0 day
[33] = tested on: A549; test: Antitumor activity against human A549 cells xenografted in SCID mouse assessed as increase in cleaved caspase-3 level in tumor at 20 mg/kg, sc administered daily for 19 days in presence of etoposide by IHC analysis; assay type: functional, organism-based; conditions: time 19.0 day
[34] = tested on: A549; test: Antitumor activity against human A549 cells xenografted in SCID mouse assessed as decrease in p21 level in tumor at 20 mg/kg, sc administered daily for 19 days in presence of etoposide by IHC analysis; assay type: functional, organism-based; conditions: time 19.0 day
[35] = tested on: A549; test: Downregulation of BRD4 expression in etoposide-induced human senescent A549 cells at 50 nM incubated for 16 hrs by Proteomic analysis; assay type: functional, cell-based
[36] = tested on: A549; test: Effect on ARGAL level in etoposide-induced human senescent A549 cells at 50 nM incubated for 16 hrs by Proteomic analysis; assay type: functional, cell-based
[37] = tested on: A549; test: Effect on BTBD8 level in etoposide-induced human senescent A549 cells at 50 nM incubated for 16 hrs by Proteomic analysis; assay type: functional, cell-based

T1 sequence (P06748 whole entry partner): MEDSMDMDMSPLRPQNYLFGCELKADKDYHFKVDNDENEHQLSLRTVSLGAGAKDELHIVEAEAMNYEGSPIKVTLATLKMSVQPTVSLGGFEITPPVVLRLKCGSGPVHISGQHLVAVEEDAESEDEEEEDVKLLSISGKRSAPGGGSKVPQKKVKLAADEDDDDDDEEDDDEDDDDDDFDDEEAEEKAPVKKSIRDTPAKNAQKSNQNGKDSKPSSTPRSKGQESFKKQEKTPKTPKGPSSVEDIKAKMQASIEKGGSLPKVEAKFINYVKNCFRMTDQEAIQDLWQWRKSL
T1 sequence (Q9UM73 19-1620 limits assumed): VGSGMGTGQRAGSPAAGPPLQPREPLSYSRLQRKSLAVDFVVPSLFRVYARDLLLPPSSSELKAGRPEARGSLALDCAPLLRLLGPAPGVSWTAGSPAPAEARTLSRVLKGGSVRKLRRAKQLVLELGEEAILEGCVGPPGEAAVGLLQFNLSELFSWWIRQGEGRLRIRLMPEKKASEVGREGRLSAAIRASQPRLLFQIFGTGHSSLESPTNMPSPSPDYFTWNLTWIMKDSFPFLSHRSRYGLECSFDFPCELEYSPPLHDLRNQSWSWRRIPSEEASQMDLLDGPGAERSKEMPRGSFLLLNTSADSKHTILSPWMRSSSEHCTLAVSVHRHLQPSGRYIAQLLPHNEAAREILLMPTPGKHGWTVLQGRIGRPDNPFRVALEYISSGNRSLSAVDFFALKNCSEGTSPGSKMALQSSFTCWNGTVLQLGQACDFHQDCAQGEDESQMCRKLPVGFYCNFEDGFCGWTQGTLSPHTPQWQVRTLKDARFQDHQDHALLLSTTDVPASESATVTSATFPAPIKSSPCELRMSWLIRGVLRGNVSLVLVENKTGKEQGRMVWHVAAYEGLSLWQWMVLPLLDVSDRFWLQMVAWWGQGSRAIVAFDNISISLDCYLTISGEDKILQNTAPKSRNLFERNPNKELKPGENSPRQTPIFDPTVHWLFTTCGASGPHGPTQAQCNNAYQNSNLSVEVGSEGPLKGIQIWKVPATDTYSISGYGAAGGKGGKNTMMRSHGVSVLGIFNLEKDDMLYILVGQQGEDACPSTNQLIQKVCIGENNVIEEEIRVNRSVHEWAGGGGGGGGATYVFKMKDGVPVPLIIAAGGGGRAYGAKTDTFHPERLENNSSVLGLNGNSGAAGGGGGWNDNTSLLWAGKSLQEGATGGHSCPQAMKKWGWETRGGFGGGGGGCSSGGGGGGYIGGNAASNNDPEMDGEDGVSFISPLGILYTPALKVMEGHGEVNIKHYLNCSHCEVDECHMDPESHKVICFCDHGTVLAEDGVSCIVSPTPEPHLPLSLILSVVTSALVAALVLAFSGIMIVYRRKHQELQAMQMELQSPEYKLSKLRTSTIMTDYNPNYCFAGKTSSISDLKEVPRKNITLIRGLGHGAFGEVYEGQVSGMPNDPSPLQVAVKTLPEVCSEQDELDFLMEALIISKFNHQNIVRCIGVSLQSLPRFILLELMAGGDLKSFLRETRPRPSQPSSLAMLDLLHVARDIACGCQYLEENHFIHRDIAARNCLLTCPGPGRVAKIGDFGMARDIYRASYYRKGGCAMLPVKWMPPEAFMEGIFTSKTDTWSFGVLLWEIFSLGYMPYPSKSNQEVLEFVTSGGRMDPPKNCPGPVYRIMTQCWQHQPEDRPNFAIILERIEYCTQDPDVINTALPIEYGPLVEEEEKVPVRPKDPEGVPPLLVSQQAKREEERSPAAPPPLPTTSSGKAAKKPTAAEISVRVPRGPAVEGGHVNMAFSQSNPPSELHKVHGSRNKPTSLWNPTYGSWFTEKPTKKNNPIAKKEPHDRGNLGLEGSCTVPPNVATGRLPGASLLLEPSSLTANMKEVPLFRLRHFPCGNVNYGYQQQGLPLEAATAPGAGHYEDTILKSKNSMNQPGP

Activity [2] | IC50 [4] | Activity [6] | Activity [8] | IC50 [10] | Structure (SMILES) | IC50 [3] | Ratio IC50 [5] | IC50 [9] | Ratio IC50 [11] | viability at 1 µM [12] | Activity [13] | Activity [14] | Activity [15] | viability at 1 µM [16] | Activity [17] | Activity [18] | Activity [19] | inhibition in vivo at 20 mg/kg [20] | Activity [21] | also measured
Active | 455 nM | – | – | – | CC(=O)OC[C@H]1O[C@@H](Oc2ccc(COC(=O)O[C@@H]3C[C@@H](C(=O)N[C@@H](C)c4ccc(-c5scnc5C)cc4)N(C(=O)[C@@H](NC(=O)CCCC(=O)N4CCC(c5cc(OC(C)C)c(Nc6ncc(Cl)c(Nc7ccccc7S(=O)(=O)C(C)C)n6)cc5C)CC4)C(C)(C)C)C3)cc2)[C@H](OC(C)=O)[C@@H](OC(C)=O)[C@H]1OC(C)=O | 2160 nM | 4.75 | – | – | – | – | – | – | – | – | – | – | – | – | Activity [1]: inactive
– | – | Active | Active | 603 nM | Cc1ncsc1-c1ccc([C@H](C)NC(=O)[C@@H]2C[C@@H](O)CN2C(=O)[C@@H](NC(=O)COCCCOCCNC(=O)C[C@@H]2N=C(c3ccc(Cl)cc3)c3c(sc(C)c3C)-n3c(C)nnc32)C(C)(C)C)cc1 | – | – | 640 nM | 0.59 | 72.2% | 20.1% | 6.76% | 0.98% | 68.7% | 17% | 14.2% | 0.09% | 74% | Non-Toxic | Activity [7]: Active
– | – | Active | Active | 354 nM | CC(=O)OC[C@H]1O[C@@H](Oc2ccc(COC(=O)O[C@@H]3C[C@@H](C(=O)N[C@@H](C)c4ccc(-c5scnc5C)cc4)N(C(=O)[C@@H](NC(=O)COCCCOCCNC(=O)C[C@@H]4N=C(c5ccc(Cl)cc5)c5c(sc(C)c5C)-n5c(C)nnc54)C(C)(C)C)C3)cc2)[C@H](OC(C)=O)[C@@H](OC(C)=O)[C@H]1OC(C)=O | – | – | 3290 nM | 5.17 | 86.5% | 8.07% | 4.72% | 0.68% | 68.3% | 16.7% | 14.8% | 0.1% | 80% | Non-Toxic | Stability [22]: Stable; Stability [23]: Stable; Activity [24]: Active; DC50 [25]: 18.3 nM; Activity [26]: Active; Activity [27]: Active; Activity [28]: Active; Activity [29]: Active; TGI [30]: Active; Activity [31]: Active; Activity [32]: Active; Activity [33]: Active; Activity [34]: Active; Activity [35]: Active; Activity [36]: Active; Activity [37]: Active
Active | 232 nM | – | – | – | Cc1cc(Nc2ncc(Cl)c(Nc3ccccc3S(=O)(=O)C(C)C)n2)c(OC(C)C)cc1C1CCN(C(=O)CCCC(=O)N[C@H](C(=O)N2C[C@H](O)C[C@H]2C(=O)N[C@@H](C)c2ccc(-c3scnc3C)cc2)C(C)(C)C)CC1 | 369 nM | 1.59 | – | – | – | – | – | – | – | – | – | – | – | – | –
